According to ChEMBL document CHEMBL4392878, “Guaiane-Type Sesquiterpenoids from the Roots of Daphne genkwa and Evaluation of Their Neuroprotective Effects” (2019):

Assays:
Type in all cases: functional
SH-SY5Y [1] = experiment: Neuroprotective activity in human SH-SY5Y cells assessed as reduction in H2O2-induced apoptosis by measuring late apoptotic cells level at 12.5 uM by annexin V-FITC and propidium iodide staining based flow cytometry (reference value: 5.26%); parameters: scale not given: the % may be the effect or the level left
SH-SY5Y [2] = experiment: Neuroprotective activity in human SH-SY5Y cells assessed as reduction in H2O2-induced cell damage by measuring cell viability level at 12.5 uM by MTT assay (reference value: 67.95%)
SH-SY5Y [3] = experiment: Neuroprotective activity in human SH-SY5Y cells assessed as reduction in H2O2-induced apoptosis by measuring viable cells level at 12.5 uM by annexin V-FITC and propidium iodide staining based flow cytometry (reference value: 76.7%)
SH-SY5Y [4] = experiment: Neuroprotective activity in human SH-SY5Y cells assessed as reduction in H2O2-induced apoptosis by measuring early apoptotic cells level at 12.5 uM by annexin V-FITC and propidium iodide staining based flow cytometry (reference value: 11.3%); parameters: scale not given: the % may be the effect or the level left
SH-SY5Y [5] = experiment: Neuroprotective activity in human SH-SY5Y cells assessed as reduction in H2O2-induced apoptosis by measuring necrotic cells level at 12.5 uM by annexin V-FITC and propidium iodide staining based flow cytometry (reference value: 6.69%); parameters: scale not given: the % may be the effect or the level left
SH-SY5Y [6] = experiment: Neuroprotective activity in human SH-SY5Y cells assessed as reduction in H2O2-induced cell damage by measuring cell viability level at 50 uM by MTT assay (reference value: 67.95%)

SMILES: CC1=C[C@@]2(O)OC(=O)C(C)=C2C[C@H]2[C@@H](C)CC[C@@]12O
- Activity (SH-SY5Y [1]): 2.7%
- Activity (SH-SY5Y [2]): 75.64%
- Activity (SH-SY5Y [3]): 87.7%
- Activity (SH-SY5Y [4]): 4.25%
- Activity (SH-SY5Y [5]): 5.37%

SMILES: CC1=C(C[C@@H]2/C(=C(/C)CO)CC[C@@H]2C)C(=O)OC1
- Activity (SH-SY5Y [1]): 3.29%
- Activity (SH-SY5Y [2]): 79.94%
- Activity (SH-SY5Y [3]): 79.2%
- Activity (SH-SY5Y [4]): 5.41%
- Activity (SH-SY5Y [5]): 12.1%

SMILES: CC1=C2CC[C@H](C)[C@@H]2C[C@H]2C(=O)[C@@H]1OC[C@@]2(O)CO
- Activity (SH-SY5Y [1]): 2.67%
- Activity (SH-SY5Y [2]): 79.34%
- Activity (SH-SY5Y [3]): 87.7%
- Activity (SH-SY5Y [4]): 4.19%
- Activity (SH-SY5Y [5]): 5.41%

SMILES: Cc1c(C)c2c(c(C)c1O)CCC(C)(C(=O)O)O2 (stereo unspecified) [TROLOX]
- Activity (SH-SY5Y [6]): 78.65%
